Here are results for 13 compounds from patent US10059721B2, “Substituted thieno[3,2-b]pyrazines for inhibiting cancer cell proliferation and inducing cancer cell apoptosis” (DONGGUK UNIVERSITY INDUSTRY-ACADEMIC COOPERATION FOUNDATION, priority 2014, dated 2018).

Bounds are passed on as bounds.

Format in all cases: cell-based
Assay [1] concerns MDA-MB-231 (breast cancer) cell line. In words: Cell growth inhibition experiment (SRB), MDA-MB-231. As to conditions: Homo sapiens, incubated for 96 hours, read-out: IC50 (μM) of cancer cell lines MDA-MB-231. On the procedure:
(§1) The cell lines below were used in order to confirm the efficacy of the compounds synthesized in Examples 1 to 27. Human PANC-1 (pancreatic cancer) and MDA-MB-231 (breast cancer) cell lines were obtained from American Type Culture Collection (ATCC; Manassas, Va.); and HN31 (head and neck cancer) and UMRC2 (kidney cancer) cell lines were secured from the United States National Institutes of Health (Bethesda, Md.). The MDA-MB-231, UMRC2, HN31, and PANC-1 cell lines were cultured in Dulbecco modified Eagle medium (DMEM) containing FBS (10%), HEPES (10 mM), penicillin (100 U/mL), and streptomycin (100 μg/mL). All cell lines were cultured in an incubator (37° C., 5% CO2).
(§2) The 4-(aryl)-N-(2-alkoxythieno[3,2-b]pyrazin-3-yl)-piperazin-1-carboxamide derivative compounds synthesized according to Examples 1 to 27 of the present invention were treated with various human tissue-derived cancer cell lines cultured according to Experimental Example 1, and thus the inhibitory effect of the growth of human cancer cells was confirmed. The cell growth inhibition experiment was conducted using sulforhodamine B (SRB) technique (Skehan et al., J. National Cancer Institute, 1990, 82: 1107-1112). Specifically, each cell line was seeded in a 96-well plate at a density of 2 to 3×10^3 cells/well, cultured overnight, and then treated with the 4-(aryl)-N-(2-alkoxythieno[3,2-b]pyrazin-3-yl)-piperazin-1-carboxamide derivative compounds of the present invention. The experiment was repeated 3 times for each compound. Cells treated with each compound were additionally incubated for 96 hours, fixed with 10% trichloroacetic acid (TCA), and then left at 4° C. for 1 hour. The resultant was washed 3 times with distilled water. Thereafter, each cell was treated with 0.4% sulforhodamine B dissolved in 1% acetic acid, stained for 30 minutes, and then washed 4 times with 1% acetic acid. The resultant was dried in the air. After shaking the resultant in Tris solution (10 mM) for 5 minutes, the absorbance was measured at 530 nm using a Benchmark Plus Microplate reader (Bio-Rad Laboratories, Hercules, Calif.).
(§3) In order to convert the OD530 value to the number of viable cells per each well, the measured OD530 value was compared to the standard OD530-vs.-cell number curve of each cell line. The percent survival was calculated using the following formula: % survival=Nlive cells(test)/Nlive cells(control)×100
(§4) IC50 values were calculated by nonlinear regression analysis.

The test system of assay [2] is UMRC2 (kidney cancer) cell line. Nature of the assay: Cell growth inhibition experiment (SRB), UMRC2. As to conditions: Homo sapiens, incubated for 96 hours, read-out: IC50 (μM) of cancer cell lines UMRC2. How it is done: as §1, §2, §3, §4
In assay [3] the test system is PANC-1 (pancreatic cancer) cell line. Nature of the assay: Cell growth inhibition experiment (SRB), PANC-1. As to conditions: Homo sapiens, incubated for 96 hours, read-out: IC50 (μM) of cancer cell lines PANC-1. How it is done: as §1, §2, §3, §4
Assay [4] has as its system HN31 (head and neck cancer) cell line. Nature of the assay: Cell growth inhibition experiment (SRB), HN31. As to conditions: Homo sapiens, incubated for 96 hours, read-out: IC50 (μM) of cancer cell lines HN31. On the procedure: as §1, §2, §3, §4
For the next assay, the system named is A549. Nature of the assay: Cell growth inhibition experiment (SRB), A549. As to conditions: Homo sapiens, incubated for 96 hours, read-out: IC50 (μM) of cancer cell lines A549. On the procedure:
as §2, §3, §4

Another assay deals with HEK293. Nature of the assay: Cell growth inhibition experiment (SRB), HEK293. The following applies: Homo sapiens, incubated for 96 hours, read-out: IC50 (μM) of cancer cell lines HEK293. On the procedure: as §2, §3, §4
A further assay relates to HUVEC. Nature of the assay: Cell growth inhibition experiment (SRB), HUVEC. The following applies: Homo sapiens, incubated for 96 hours, read-out: IC50 (μM) of cancer cell lines HUVEC. How it is done: as §2, §3, §4
The next assay concerns HT29. Nature of the assay: Cell growth inhibition experiment (SRB), HT29. As to conditions: Homo sapiens, HT-29, incubated for 96 hours, read-out: IC50 (μM) of cancer cell lines HT29. How it is done:
as §2, §3, §4

In the next assay the test system is SK-OV-3. In words: Cell growth inhibition experiment (SRB), SK-OV-3. As to conditions: Homo sapiens, incubated for 96 hours, read-out: IC50 (μM) of cancer cell lines SK-OV-3. How it is done:
as §2, §3, §4

Consider `CC(C)Oc1nc2ccsc2nc1NC(=O)N1CCN(c2cc(F)cc(F)c2)CC1` [Example 18, 4-(3,5-difluorophenyl)-N-(2-isopropoxythieno[3,2-b]pyrazin-3-yl)piperazin-1-carboxamide], for which the IC50 (in assay [1]; in assay [2]; in assay [3]; in assay [4]; in the assay on A549; with HEK293) was less than 2.5 µM throughout. The IC50 in the assay with HUVEC, in the assay on HT29 and in the assay with SK-OV-3 was less than 2.5 µM throughout.
As for `COc1cc(OC)cc(N2CCN(C(=O)Nc3nc4sccc4nc3OC(C)C)CC2)c1` [Example 16, 4-(3,5-dimethoxyphenyl)-N-(2-isopropoxythieno[3,2-b]pyrazin-3-yl)piperazin-1-carboxamide], the IC50 (in general, the midpoint of a concentration-inhibition curve) is 2.12 µM in [1]; less than 2.5 µM in [2]; less than 2.5 µM in [3]; less than 2.5 µM in [4]; less than 2.5 µM in the assay with A549; less than 2.5 µM in the assay on HEK293. Also, the half-inhibitory concentration (IC50) in the assay with HUVEC, in the assay on HT29 and with SK-OV-3 was less than 2.5 µM throughout.
With `COc1cc(OC)cc(N2CCN(C(=O)Nc3nc4sc(Cl)cc4nc3OC(C)C)CC2)c1` [Example 7, N-(6-chloro-2-isopropoxythieno[3,2-b]pyrazin-3-yl)-4-(3,5-dimethoxyphenyl)piperazin-1-carboxamide], the IC50 (in assay [1]; in assay [2]; in assay [3]; in assay [4]; in the assay on A549; in the assay on HEK293) was less than 2.5 µM each time. Moreover, the IC50 in the assay on HUVEC, in the assay on HT29 and in the assay with SK-OV-3 was less than 2.5 µM in each case.
For the compound `COc1cc(OC)cc(N2CCN(C(=O)Nc3nc4sccc4nc3OC)CC2)c1` [Example 10, 4-(3,5-dimethoxyphenyl)-N-(2-methoxythieno[3,2-b]pyrazin-3-yl)piperazin-1-carboxamide], the IC50 came out at 0.02 µM in assay [1]; 0.03 µM in assay [2]; 0.38 µM in assay [3]; 0.18 µM in [4]; 1.14 µM in the assay on A549; 0.56 µM in the assay on HEK293. In addition, the figures for the IC50 in the assay on HUVEC, with HT29 and with SK-OV-3 were 0.06 µM, 0.27 µM and 0.23 µM, respectively.
Turning to `COc1nc2ccsc2nc1NC(=O)N1CCN(c2cc(C)cc(C)c2)CC1` [Example 11, 4-(3,5-dimethylphenyl)-N-(2-methoxythieno[3,2-b]pyrazin-3-yl)piperazin-1-carboxamide], the IC50 in assay [1] amounted to 0.07 µM; in assay [2], 0.07 µM; in assay [3], 0.24 µM; in [4], 0.41 µM; in the assay on A549, 1.31 µM; with HEK293 it was 0.65 µM. The IC50 in the assay with HUVEC was 0.07 µM; with HT29, 0.31 µM; in the assay on SK-OV-3, 0.27 µM.
Take `CCOc1nc2cc(Cl)sc2nc1NC(=O)N1CCN(c2cc(C)cc(C)c2)CC1` [Example 5, N-(6-chloro-2-ethoxythieno[3,2-b]pyrazin-3-yl)-4-(3,5-dimethylphenyl)piperazin-1-carboxamide]: the 50% inhibitory concentration (IC50) in assay [1] was 1.22 µM; in assay [2], 1.72 µM; in [3] it was 2.32 µM; in [4] it was 2.35 µM; in the assay with A549, less than 2.5 µM; with HEK293 it was less than 2.5 µM. The IC50 in the assay on HUVEC, with HT29 and in the assay on SK-OV-3 was less than 2.5 µM in each case.
In the case of `COc1nc2ccsc2nc1NC(=O)N1CCN(c2cccc(OC(F)(F)F)c2)CC1` [Example 24, N-(2-methoxythieno[3,2-b]pyrazin-3-yl)-4-(3-(trifluoromethoxy)phenyl)piperazin-1-carboxamide], the IC50 in [1] was 0.12 µM; in assay [2], 0.36 µM; in [3], 0.44 µM; in assay [4] it was less than 2.5 µM; in the assay on A549, 0.87 µM; with HEK293, 0.25 µM. For the same compound, the IC50 is less than 2.5 µM in the assay with HUVEC, 0.36 µM in the assay with HT29 and 0.12 µM with SK-OV-3.
In the case of `Cc1cc(C)cc(N2CCN(C(=O)Nc3nc4sc(Cl)cc4nc3OC(C)C)CC2)c1` [Example 8, N-(6-chloro-2-isopropoxythieno[3,2-b]pyrazin-3-yl)-4-(3,5-dimethylphenyl)piperazin-1-carboxamide], the IC50 (in assay [1]; in assay [2]; in assay [3]; in [4]; with A549; in the assay on HEK293) was less than 2.5 µM each time. The IC50 in the assay on HUVEC, in the assay on HT29 and in the assay with SK-OV-3 was less than 2.5 µM throughout.
For `CC(C)Oc1nc2cc(Cl)sc2nc1NC(=O)N1CCN(c2cc(F)cc(F)c2)CC1` [Example 9, N-(6-chloro-2-isopropoxythieno[3,2-b]pyrazin-3-yl)-4-(3,5-difluorophenyl)piperazin-1-carboxamide], the IC50 (in assay [1]; in assay [2]; in assay [3]; in assay [4]; with A549; with HEK293) was less than 2.5 µM in each case. The IC50 in the assay on HUVEC, in the assay on HT29 and in the assay with SK-OV-3 was less than 2.5 µM throughout.
Turning to `COc1cc(OC)cc(N2CCN(C(=O)Nc3nc4sc(Cl)cc4nc3OC)CC2)c1` [Example 1, N-(6-chloro-2-methoxythieno[3,2-b]pyrazin-3-yl)-4-(3,5-dimethoxyphenyl)piperazin-1-carboxamide], the IC50 in assay [1] was found to be 0.02 µM; in [2], 0.03 µM; in assay [3], 0.53 µM; in [4], 0.27 µM; in the assay with A549, 2.13 µM; in the assay with HEK293 it was 0.63 µM. Also, the results for the IC50 in the assay with HUVEC, in the assay with HT29 and in the assay with SK-OV-3 were 0.12 µM, 0.31 µM and 0.27 µM, respectively.
As for `COc1nc2cc(Cl)sc2nc1NC(=O)N1CCN(c2cc(C)cc(C)c2)CC1` [Example 2, N-(6-chloro-2-methoxythieno[3,2-b]pyrazin-3-yl)-4-(3,5-dimethylphenyl)piperazin-1-carboxamide], the IC50 was 0.06 µM in [1]; 0.08 µM in [2]; 0.95 µM in assay [3]; 0.99 µM in assay [4]; less than 2.5 µM in the assay with A549; 0.93 µM with HEK293. Moreover, the values for the IC50 with HUVEC, in the assay on HT29 and in the assay with SK-OV-3 were 0.91 µM, 0.62 µM and 0.82 µM, respectively.
For `COc1nc2ccsc2nc1NC(=O)N1CCN(c2cc(C)cc(F)c2)CC1` [Example 23, 4-(3-fluoro-5-methylphenyl)-N-(2-methoxythieno[3,2-b]pyrazin-3-yl)piperazin-1-carboxamide], the IC50 was 0.36 µM in [1]; less than 2.5 µM in [2]; 0.58 µM in [3]; 0.28 µM in [4]; 0.63 µM in the assay with A549; 0.35 µM in the assay on HEK293. The IC50 was 0.45 µM with HUVEC, 0.28 µM with HT29 and 0.36 µM with SK-OV-3.
As for `CCOc1nc2ccsc2nc1NC(=O)N1CCN(c2cc(OC)cc(OC)c2)CC1` [Example 13, 4-(3,5-dimethoxyphenyl)-N-(2-ethoxythieno[3,2-b]pyrazin-3-yl)piperazin-1-carboxamide], the IC50 in [1] is 0.16 µM; in assay [2] it was 0.26 µM; in [3], 0.65 µM; in [4], 0.72 µM; in the assay with A549, less than 2.5 µM; in the assay on HEK293 it was less than 2.5 µM. The IC50 with HUVEC, with HT29 and with SK-OV-3 was less than 2.5 µM each time.
